Data reported in patent US20230114728A1 (Venatorx Pharmaceuticals, Inc., priority 2019, published 2023).
Values after ≈ are worked out from the molar mass of the structure shown.

Columns and labels:
Assay in all cases: Broth microdilution MIC in CAMHB
Format in all cases: cell-based
[1] = test system: P. aeruginosa ATCC 35151; conditions: Pseudomonas aeruginosa, ATCC35151; MHB; hyper-permeable strain; read-out: Minimum Inhibitory Concentration, P. aeruginosa ATCC 35151
Outline: (§1)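 Standard CLSI-style microdilution in cation-adjusted Mueller Hinton broth, 2-fold dilution series, incubated 16-20 h at 37° C; endpoint was visual absence of growth.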

[2] = test system: E. coli ATCC 25922; conditions: Escherichia coli, ATCC25922; E. coli ATCC 25922; MHB; read-out: Minimum Inhibitory Concentration, E. coli 25922
Outline: as §1

[3] = test system: E. coli D22; conditions: Escherichia coli; E. coli D22 (hyper-permeable); MHB; read-out: Minimum Inhibitory Concentration, E. coli D22
Outline: as §1

[4] = test system: K. pneumoniae SI-117 producing VIM-1; conditions: Klebsiella pneumoniae, read-out: Minimum Inhibitory Concentration, K. pneumoniae SI-117
Outline: as §1

[5] = test system: K. pneumoniae 848844 producing SHV-11 and KPC-2; conditions: Klebsiella pneumoniae, read-out: Minimum Inhibitory Concentration, K. pneumoniae 848844
Outline: as §1

[6] = test system: P. aeruginosa ATCC 27853; conditions: Pseudomonas aeruginosa, ATCC27853; MHB; read-out: Minimum Inhibitory Concentration, P. aeruginosa ATCC 27853
Outline: as §1

[7] = test system: P. aeruginosa (ΔmexAB-oprM); conditions: Pseudomonas aeruginosa, read-out: Minimum Inhibitory Concentration, P. aeruginosa ΔmexAB-OprM
Outline: as §1

[8] = test system: E. coli AG100; conditions: Escherichia coli; E. coli AG100 (wild-type parent); MHB; read-out: Minimum Inhibitory Concentration, E. coli AG100
Outline: as §1

[9] = test system: A. baumannii ATCC 19606; conditions: Acinetobacter baumannii, ATCC19606; MHB; read-out: Minimum Inhibitory Concentration, A. baumannii ATCC 19606
Outline: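 Lowest compound concentration with no visible growth after 16-20 h at 37 °C defines MIC. Plates of 2-fold serial dilutions in cation-adjusted Mueller Hinton broth received 2-8×10^5 CFU/mL of exponentially grown cells, per CLSI methods; panel spans reference, hyper-permeable and efflux-pump-deleted strains.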

[10] = test system: E. coli 901C; conditions: Escherichia coli; E. coli 901C (hyper-permeable); MHB; read-out: Minimum Inhibitory Concentration, E. coli 901C
Outline: as §1

[11] = test system: K. pneumoniae UMM producing SHV-5 and KPC-2; conditions: Klebsiella pneumoniae, read-out: Minimum Inhibitory Concentration, K. pneumoniae UMM
Outline: as §1

[12] = test system: E. coli AG100A; conditions: Escherichia coli, read-out: Minimum Inhibitory Concentration, E. coli AG100A
Outline: as §1

Structure (SMILES)	MIC [1]	MIC [2]	MIC [3]	MIC [4]	MIC [5]	MIC [6]	MIC [7]	MIC [8]	MIC [9]	MIC [10]	MIC [11]	MIC [12]
CCN1CCN(C(=O)NC(C(=O)N[C@H]2Cc3cccc(C(=O)O)c3OB2O)c2cc(F)c(O)cc2F)C(=O)C1=O (stereo partly drawn) [Example 104, (3R)-3-(2-(2,5-difluoro-4-hydroxyphenyl)-2-(4-ethyl-2,3-dioxopiperazine-1-carboxamido)acetamido)-2-hydroxy-3,4-dihydro-2H-benzo[e][1,2]oxaborinine-8-carboxylic acid]	2 to 4 µg/mL (≈ 3.57 to 7.14 µM)	32 to 64 µg/mL (≈ 57.1 to 114 µM)	2 to 4 µg/mL (≈ 3.57 to 7.14 µM)	32 to 64 µg/mL (≈ 57.1 to 114 µM)	> 128 µg/mL	> 128 µg/mL	8 to 16 µg/mL (≈ 14.3 to 28.6 µM)	32 to 64 µg/mL (≈ 57.1 to 114 µM)	> 128 µg/mL	< 0.25 µg/mL	32 to 64 µg/mL (≈ 57.1 to 114 µM)	2 to 4 µg/mL (≈ 3.57 to 7.14 µM)
CCN1CCN(C(=O)NC(C(=O)N[C@H]2Cc3cccc(C(=O)O)c3OB2O)c2c(F)c(O)cc(O)c2F)C(=O)C1=O (stereo partly drawn) [Example 106, (3R)-3-(2-(2,6-difluoro-3,5-dihydroxyphenyl)-2-(4-ethyl-2,3-dioxopiperazine-1-carboxamido)acetamido)-2-hydroxy-3,4-dihydro-2H-benzo[e][1,2]oxaborinine-8-carboxylic acid]	2 to 4 µg/mL (≈ 3.47 to 6.94 µM)	> 128 µg/mL	8 to 16 µg/mL (≈ 13.9 to 27.8 µM)	> 128 µg/mL	> 128 µg/mL	> 128 µg/mL	8 to 16 µg/mL (≈ 13.9 to 27.8 µM)	> 128 µg/mL	> 128 µg/mL	2 to 4 µg/mL (≈ 3.47 to 6.94 µM)	> 128 µg/mL	32 to 64 µg/mL (≈ 55.5 to 111 µM)
CCN1CCN(C(=O)NC(C(=O)N[C@H]2Cc3cccc(C(=O)O)c3OB2O)c2cccc(CNS(N)(=O)=O)c2)C(=O)C1=O (stereo partly drawn) [Example 107, (3R)-3-(2-(4-ethyl-2,3-dioxopiperazine-1-carboxamido)-2-(3-((sulfamoylamino)methyl)phenyl)acetamido)-2-hydroxy-3,4-dihydro-2H-benzo[e][1,2]oxaborinine-8-carboxylic acid]	8 to 16 µg/mL (≈ 13 to 26 µM)	32 to 64 µg/mL (≈ 51.9 to 104 µM)	8 to 16 µg/mL (≈ 13 to 26 µM)	> 128 µg/mL	> 128 µg/mL	> 128 µg/mL	8 to 16 µg/mL (≈ 13 to 26 µM)	> 128 µg/mL	> 128 µg/mL	0.5 to 1 µg/mL (≈ 0.811 to 1.62 µM)	> 128 µg/mL	2 to 4 µg/mL (≈ 3.24 to 6.49 µM)
CCN1CCN(C(=O)NC(C(=O)N[C@H]2Cc3cccc(C(=O)O)c3OB2O)c2cccc(CN)c2)C(=O)C1=O (stereo partly drawn) [Example 108, (3R)-3-(2-(3-(aminomethyl)phenyl)-2-(4-ethyl-2,3-dioxopiperazine-1-carboxamido)acetamido)-2-hydroxy-3,4-dihydro-2H-benzo[e][1,2]oxaborinine-8-carboxylic acid]	8 to 16 µg/mL (≈ 14.9 to 29.8 µM)	8 to 16 µg/mL (≈ 14.9 to 29.8 µM)	8 to 16 µg/mL (≈ 14.9 to 29.8 µM)	32 to 64 µg/mL (≈ 59.6 to 119 µM)	> 128 µg/mL	> 128 µg/mL	32 to 64 µg/mL (≈ 59.6 to 119 µM)	32 to 64 µg/mL (≈ 59.6 to 119 µM)	> 128 µg/mL	2 to 4 µg/mL (≈ 3.72 to 7.44 µM)	32 to 64 µg/mL (≈ 59.6 to 119 µM)	2 to 4 µg/mL (≈ 3.72 to 7.44 µM)
NCCN1CCN(C(=O)NC(C(=O)N[C@H]2Cc3cccc(C(=O)O)c3OB2O)c2cc(F)c(O)cc2Cl)C(=O)C1=O (stereo partly drawn) [Example 109, (3R)-3-(2-(4-(2-aminoethyl)-2,3-dioxopiperazine-1-carboxamido)-2-(2-chloro-5-fluoro-4-hydroxyphenyl)acetamido)-2-hydroxy-3,4-dihydro-2H-benzo[e][1,2]oxaborinine-8-carboxylic acid]	2 to 4 µg/mL (≈ 3.38 to 6.76 µM)	32 to 64 µg/mL (≈ 54.1 to 108 µM)	8 to 16 µg/mL (≈ 13.5 to 27 µM)	> 128 µg/mL	> 128 µg/mL	> 128 µg/mL	8 to 16 µg/mL (≈ 13.5 to 27 µM)	> 128 µg/mL	> 128 µg/mL	2 to 4 µg/mL (≈ 3.38 to 6.76 µM)	32 to 64 µg/mL (≈ 54.1 to 108 µM)	8 to 16 µg/mL (≈ 13.5 to 27 µM)
CCN1CCN(C(=O)NC(C(=O)N[C@H]2Cc3cccc(C(=O)O)c3OB2O)c2cncc(O)c2)C(=O)C1=O (stereo partly drawn) [Example 112, (3R)-3-(2-(4-ethyl-2,3-dioxopiperazine-1-carboxamido)-2-(5-hydroxypyridin-3-yl)acetamido)-2-hydroxy-3,4-dihydro-2H-benzo[e][1,2]oxaborinine-8-carboxylic acid]	2 to 4 µg/mL (≈ 3.81 to 7.61 µM)	32 to 64 µg/mL (≈ 60.9 to 122 µM)	2 to 4 µg/mL (≈ 3.81 to 7.61 µM)	> 128 µg/mL	> 128 µg/mL	> 128 µg/mL	8 to 16 µg/mL (≈ 15.2 to 30.5 µM)	32 to 64 µg/mL (≈ 60.9 to 122 µM)	> 128 µg/mL	0.5 to 1 µg/mL (≈ 0.952 to 1.9 µM)	32 to 64 µg/mL (≈ 60.9 to 122 µM)	2 to 4 µg/mL (≈ 3.81 to 7.61 µM)
CCN1CCN(C(=O)NC(C(=O)N[C@H]2Cc3cccc(C(=O)O)c3OB2O)c2cccc(C(=O)O)c2)C(=O)C1=O (stereo partly drawn) [Example 113, (3R)-3-(2-(3-carboxyphenyl)-2-(4-ethyl-2,3-dioxopiperazine-1-carboxamido)acetamido)-2-hydroxy-3,4-dihydro-2H-benzo[e][1,2]oxaborinine-8-carboxylic acid]	0.5 to 1 µg/mL (≈ 0.905 to 1.81 µM)	32 to 64 µg/mL (≈ 57.9 to 116 µM)	2 to 4 µg/mL (≈ 3.62 to 7.24 µM)	> 128 µg/mL	> 128 µg/mL	> 128 µg/mL	8 to 16 µg/mL (≈ 14.5 to 29 µM)	32 to 64 µg/mL (≈ 57.9 to 116 µM)	> 128 µg/mL	< 0.25 µg/mL	32 to 64 µg/mL (≈ 57.9 to 116 µM)	2 to 4 µg/mL (≈ 3.62 to 7.24 µM)
